Source: PubChem BioAssay AID1963852 (Molecular Pharmacology Branch, DTP, NCI, 2024)
pIC50: −log10 of the molar value.

System: 282377-053-R-J1-PDC complex spheroid viability
Experiment: Anticancer human tumor 282377-053-R-J1-PDC patient-derived colon adenocarcinoma cell line growth inhibition [POLQ]
Conditions: for pIC50: curve of first compound; for viability, T/C: stronger effect = lower value
Procedure: Multicellular complex tumor spheroid response to Polymerase (POL) inhibitors (novobiocin, ART-558, RP6685) in combination with a variety of drugs and investigational agents in selected tumor cell lines
The POL inhibitors (novobiocin, ART-558, and RP6685) were evaluated both individually and in combination with standard of care and investigational anticancer small molecules within a complex spheroid model of solid tumors. . Complex spheroids include a stromal component modeled by human endothelial cells (HUVEC) and fibroblasts modeled by human mesenchymal stem cells (MSCs). The concentration ranges selected for each drug and investigational agent were based upon clinically achievable concentrations if the clinical Cmax of the agent was known.
Compounds. The drugs and investigational agents: novobiocin (NSC847541), ART-558 (NSC835418), RP-6685 (NSC848927), peposertib (NSC802822), ceralasertib (NSC780249), elimusertib (NSC800525), camonsertib (NSC841442), AZD-1390 (NSC803789), olaparib (NSC753686), talazoparib (NSC767125), rucaparib (NSC756644), sotorasib (NSC818433), MRTX-1133 (NSC836407), SN-38 (NSC673596), topotecan (NSC609699), epotoside (NSC141540), doxorubicin (NSC123127), gemcitabine (NSC613327), 5-fluorouracil (NSC19893), paclitaxel (NSC125973), vemurafenib (NSC761431), MSA-2 (NSC828583), SN-011 (NSC837082), adavosertib (NSC754352), prexasertib (NSC758257), carboplatin (NSC241240) and oxaliplatin (NSC266046), were obtained from the National Cancer Institute (NCI) Developmental Therapeutics Program Chemical Repository (21). The FDA-approved anticancer drug set is available from the Developmental Therapeutics Program at https://dtp.cancer.gov/organization/dscb/obtaining/. […] The stock solutions were prepared in dimethyl sulfoxide (DMSO, Sigma-Aldrich, St. Louis, MO, cat. D2650), except for the platinum compounds which were prepared in saline (Quality Biological, Gaithersburg, MD, cat. 114-055-101), at 800-fold the tested concentration and stored at -70 degrees C prior to their use. All drugs and investigational agents were tested over a range starting from a high concentration at or near the clinical Cmax and decreasing in half-log increments. If the clinical Cmax for an agent had not been determined, the highest concentration tested was 10 microM, except for SN-38, which was tested at a high concentration of 1 microM.
Cell Culture. All cells were maintained in an incubator at 37 degrees C and 5% CO2 with 95% humidity. The PDC lines were cultured according to standard operating procedures established by the NCI PDMR (https://pdmr.cancer.gov). Table 3 of the manuscript, lists the cell lines along with the number of the three cell types plated to form the mct-spheroids and media for tumor cell growth. After thawing, all PDC lines, except 997537-175-T-J1-PDC and 415267-285-R-J2-PDC, were cultured in Matrigel-coated flasks prepared with a working solution of 1X Ham's F-12 nutrient mix, without supplementation (Thermo Fisher Scientific, cat. 11765054), 100 U/mL penicillin-streptomycin (Thermo Fisher Scientific, cat. 15140122), and 2.5% Matrigel (Corning Inc., Corning, NY, cat. 354248) for the first three passages. The two PDC lines 997537-175-T-J1-PDC and 415267-285-R-J2-PDC were cultured on uncoated flasks. The 857933-349-R-J2-PDC line was cultured in 6C/Colon 1B media containing advanced DMEM/F-12 (Thermo Fisher Scientific, cat. 12634028), 10 mM HEPES (Thermo Fisher Scientific, cat. 15630080), 1X GlutaMAX supplement (Thermo Fisher Scientific, cat. 35050061), 0.1 mg/mL primocin (InvivoGen, San Diego, CA, cat. ant-pm-2), 10% defined fetal bovine serum, heat inactivated (HyClone Laboratories Inc., Logan, UT, cat. SH30070.03HI), 50% L-WRN conditioned media (ATCC, cat. CRL-3276), 1.25 mM N-Acetyl-L-cysteine (Sigma-Aldrich, cat. A9165), 10 mM nicotinamide (Sigma-Aldrich, cat. N0636), 1X B-27 supplement (Thermo Fisher Scientific, cat. 17504044), 1X N-2 supplement (Thermo Fisher Scientific, cat. […]

[1] = second compound 0.0316 µM, first compound 0.00316 µM
[2] = second compound 0.0316 µM, first compound 0.01 µM
[3] = second compound 0.0316 µM, first compound 0.0316 µM
[4] = second compound 0.0316 µM, first compound 0.1 µM
[5] = second compound 0.0316 µM, first compound 0.316 µM
[6] = second compound 0.0316 µM, first compound 1 µM
[7] = second compound 0.1 µM, first compound 0.00316 µM
[8] = second compound 0.1 µM, first compound 0.01 µM
[9] = second compound 0.1 µM, first compound 0.0316 µM
[10] = second compound 0.1 µM, first compound 0.1 µM
[11] = second compound 0.1 µM, first compound 0.316 µM
[12] = second compound 0.1 µM, first compound 1 µM
[13] = second compound 0.316 µM, first compound 0.00316 µM
[14] = second compound 0.316 µM, first compound 0.01 µM
[15] = second compound 0.316 µM, first compound 0.0316 µM
[16] = second compound 0.316 µM, first compound 0.1 µM
[17] = second compound 0.316 µM, first compound 0.316 µM
[18] = second compound 0.316 µM, first compound 1 µM
[19] = second compound 1 µM, first compound 0.00316 µM
[20] = second compound 1 µM, first compound 0.01 µM
[21] = second compound 1 µM, first compound 0.0316 µM
[22] = second compound 1 µM, first compound 0.1 µM
[23] = second compound 1 µM, first compound 0.316 µM
[24] = second compound 1 µM, first compound 1 µM
[25] = second compound 3.16 µM, first compound 0.00316 µM
[26] = second compound 3.16 µM, first compound 0.01 µM
[27] = second compound 3.16 µM, first compound 0.0316 µM
[28] = second compound 3.16 µM, first compound 0.1 µM
[29] = second compound 3.16 µM, first compound 0.316 µM
[30] = second compound 3.16 µM, first compound 1 µM
[31] = second compound 10 µM, first compound 0.00316 µM
[32] = second compound 10 µM, first compound 0.01 µM
[33] = second compound 10 µM, first compound 0.0316 µM
[34] = second compound 10 µM, first compound 0.1 µM
[35] = second compound 10 µM, first compound 0.316 µM
[36] = second compound 10 µM, first compound 1 µM
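Further: spheroids exposed to compounds for seven days.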
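Wherever viability, T/C is given: 100% = DMSO vehicle control viability.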

## C=CCn1c(=O)c2cnc(Nc3ccc(N4CCN(C)CC4)cc3)nc2n1-c1cccc(C(C)(C)O)n1 + COC1C(OC(N)=O)C(O)C(Oc2ccc3c(O)c(NC(=O)c4ccc(O)c(CC=C(C)C)c4)c(=O)oc3c2C)OC1(C)C
Second compound 0.0316 µM
  pIC50: < 6.00
Second compound 0.1 µM
  pIC50: < 6.00
Second compound 0.316 µM
  pIC50: < 6.00
Second compound 1 µM
  pIC50: < 6.00
Second compound 3.16 µM
  pIC50: < 6.00
Second compound 10 µM
  pIC50: < 6.00
[1]
  viability, T/C: 85.2%
[2]
  viability, T/C: 97.7%
[3]
  viability, T/C: 147%
[4]
  viability, T/C: 120%
[5]
  viability, T/C: 91.7%
[6]
  viability, T/C: 64.7%
[7]
  viability, T/C: 122%
[8]
  viability, T/C: 108%
[9]
  viability, T/C: 94.4%
[10]
  viability, T/C: 118%
[11]
  viability, T/C: 99.1%
[12]
  viability, T/C: 89.9%
[13]
  viability, T/C: 113%
[14]
  viability, T/C: 109%
[15]
  viability, T/C: 134%
[16]
  viability, T/C: 96.3%
[17]
  viability, T/C: 98.7%
[18]
  viability, T/C: 81.7%
[19]
  viability, T/C: 114%
[20]
  viability, T/C: 90.5%
[21]
  viability, T/C: 93.1%
[22]
  viability, T/C: 109%
[23]
  viability, T/C: 110%
[24]
  viability, T/C: 67.8%
[25]
  viability, T/C: 118%
[26]
  viability, T/C: 120%
[27]
  viability, T/C: 78.4%
[28]
  viability, T/C: 91.5%
[29]
  viability, T/C: 105%
[30]
  viability, T/C: 76.4%
[31]
  viability, T/C: 88.5%
[32]
  viability, T/C: 91.8%
[33]
  viability, T/C: 87.2%
[34]
  viability, T/C: 102%
[35]
  viability, T/C: 96.7%
[36]
  viability, T/C: 75.5%

## CCc1c2c(nc3ccc(O)cc13)-c1cc3c(c(=O)n1C2)COC(=O)[C@]3(O)CC + COC1C(OC(N)=O)C(O)C(Oc2ccc3c(O)c(NC(=O)c4ccc(O)c(CC=C(C)C)c4)c(=O)oc3c2C)OC1(C)C
Second compound 0.0316 µM
  pIC50: 7.04
Second compound 0.1 µM
  pIC50: 6.94
Second compound 0.316 µM
  pIC50: 6.94
Second compound 1 µM
  pIC50: 7.10
Second compound 3.16 µM
  pIC50: 7.39
Second compound 10 µM
  pIC50: 7.28
[1]
  viability, T/C: 111%
[2]
  viability, T/C: 71.8%
[3]
  viability, T/C: 59.8%
[4]
  viability, T/C: 54%
[5]
  viability, T/C: 30.7%
[6]
  viability, T/C: 19.4%
[7]
  viability, T/C: 108%
[8]
  viability, T/C: 90.1%
[9]
  viability, T/C: 64.6%
[10]
  viability, T/C: 51.8%
[11]
  viability, T/C: 37.6%
[12]
  viability, T/C: 19.2%
[13]
  viability, T/C: 124%
[14]
  viability, T/C: 81.2%
[15]
  viability, T/C: 60.7%
[16]
  viability, T/C: 51%
[17]
  viability, T/C: 37.7%
[18]
  viability, T/C: 18.6%
[19]
  viability, T/C: 116%
[20]
  viability, T/C: 93.8%
[21]
  viability, T/C: 49.3%
[22]
  viability, T/C: 59.1%
[23]
  viability, T/C: 30.9%
[24]
  viability, T/C: 21.6%
[25]
  viability, T/C: 115%
[26]
  viability, T/C: 75.6%
[27]
  viability, T/C: 46.3%
[28]
  viability, T/C: 47.8%
[29]
  viability, T/C: 38.6%
[30]
  viability, T/C: 25%
[31]
  viability, T/C: 102%
[32]
  viability, T/C: 72.6%
[33]
  viability, T/C: 56%
[34]
  viability, T/C: 39.2%
[35]
  viability, T/C: 41.9%
[36]
  viability, T/C: 16.6%

## Nc1ccn(C2OC(CO)C(O)C2(F)F)c(=O)n1 (stereo unspecified) + COC1C(OC(N)=O)C(O)C(Oc2ccc3c(O)c(NC(=O)c4ccc(O)c(CC=C(C)C)c4)c(=O)oc3c2C)OC1(C)C
Second compound 0.0316 µM
  pIC50: 7.08
Second compound 0.1 µM
  pIC50: 6.86
Second compound 0.316 µM
  pIC50: 6.91
Second compound 1 µM
  pIC50: 6.94
Second compound 3.16 µM
  pIC50: 7.04
Second compound 10 µM
  pIC50: 7.02
[3]
  viability, T/C: 80.7%
[4]
  viability, T/C: 41.5%
[5]
  viability, T/C: 28.9%
[6]
  viability, T/C: 27.2%
Second compound 0.0316 µM, first compound 3.16 µM
  viability, T/C: 22.7%
Second compound 0.0316 µM, first compound 10 µM
  viability, T/C: 11.6%
[9]
  viability, T/C: 79.7%
[10]
  viability, T/C: 60.3%
[11]
  viability, T/C: 23%
[12]
  viability, T/C: 26%
Second compound 0.1 µM, first compound 3.16 µM
  viability, T/C: 20.7%
Second compound 0.1 µM, first compound 10 µM
  viability, T/C: 13.5%
[15]
  viability, T/C: 107%
[16]
  viability, T/C: 51.5%
[17]
  viability, T/C: 32.5%
[18]
  viability, T/C: 27.8%
Second compound 0.316 µM, first compound 3.16 µM
  viability, T/C: 21.1%
Second compound 0.316 µM, first compound 10 µM
  viability, T/C: 12.5%
[21]
  viability, T/C: 93%
[22]
  viability, T/C: 48%
[23]
  viability, T/C: 32%
[24]
  viability, T/C: 33.3%
Second compound 1 µM, first compound 3.16 µM
  viability, T/C: 21.8%
Second compound 1 µM, first compound 10 µM
  viability, T/C: 10.6%
[27]
  viability, T/C: 76.5%
[28]
  viability, T/C: 47.1%
[29]
  viability, T/C: 27.9%
[30]
  viability, T/C: 27.8%
Second compound 3.16 µM, first compound 3.16 µM
  viability, T/C: 21.3%
Second compound 3.16 µM, first compound 10 µM
  viability, T/C: 11.1%
[33]
  viability, T/C: 90.2%
[34]
  viability, T/C: 47.2%
[35]
  viability, T/C: 28.1%
[36]
  viability, T/C: 32.7%
Second compound 10 µM, first compound 3.16 µM
  viability, T/C: 24%
Second compound 10 µM, first compound 10 µM
  viability, T/C: 13.8%
